Source: patent US11470846B2, “Herbicidal pyridino-/pyrimidino-thiazoles” (SYNGENTA PARTICIPATIONS AG, priority 2014, dated 2022)

Experiments:
Type in all cases: in vivo
[1] = test system: Alopecurus myosuroides (ALOMY); assay: Pre-emergence herbicidal activity; details: pre-emergence application, 1000 g/Ha, evaluated after 13 days, scale 0-5
Experimental: (§1) B1 Pre-Emergence Herbicidal Activity
(§2) Seeds of a variety of test species were sown in standard soil in pots: Triticum aestivium (TRZAW), Oryza sativa (ORYSA), Avena fatua (AVEFA), Alopecurus myosuroides (ALOMY), Echinochloa crus-galli (ECHCG), Lolium perenne (LOLPE), Zea Mays (ZEAMX), Abutilon theophrasti (ABUTH), Amaranthus retroflexus (AMARE) and Setaria faberi (SETFA). After cultivation for one day (pre-emergence) under controlled conditions in a glasshouse (at 24/16° C., day/night; 14 hours light; 65% humidity), the plants were sprayed with an aqueous spray solution derived from the formulation of the technical active ingredient in acetone/water (50:50) solution containing 0.5% Tween 20 (polyoxyethelyene sorbitan monolaurate, CAS RN 9005-64-5). The test plants were then grown in a glasshouse under controlled conditions (at 24/16° C., day/night; 14 hours light; 65% humidity) and watered twice daily. After 13 days, the test was evaluated (5=total damage to plant; 0=no damage to plant).

Avena fatua (AVEFA) [2] = assay: Pre-emergence herbicidal activity; details: pre-emergence application, 1000 g/Ha, evaluated after 13 days, scale 0-5
Experimental: as §1, §2

[3] = test system: Echinochloa crus-galli (ECHCG); assay: Pre-emergence herbicidal activity; details: pre-emergence application, 1000 g/Ha, evaluated after 13 days, scale 0-5; Table 5
Experimental: as §1, §2

Lolium perenne (LOLPE) [4] = assay: Pre-emergence herbicidal activity; details: pre-emergence application, 1000 g/Ha, evaluated after 13 days, scale 0-5; Table 5
Experimental: as §1, §2

Oryza sativa (ORYSA) [5] = assay: Pre-emergence herbicidal activity; details: pre-emergence application, 1000 g/Ha, evaluated after 13 days, scale 0-5
Experimental: as §1, §2

[6] = test system: Triticum aestivium (TRZAW); assay: Pre-emergence herbicidal activity; details: pre-emergence application, 1000 g/Ha, evaluated after 13 days, scale 0-5
Experimental: as §1, §2

[7] = test system: Alopecurus myosuroides (ALOMY); assay: Post-emergence herbicidal activity; details: post-emergence application, 1000 g/Ha, evaluated after 13 days, scale 0-5
Experimental: (§3) B2 Post-Emergence Herbicidal Activity
(§4) Seeds of a variety of test species were sown in standard soil in pots: Triticum aestivium (TRZAW), Oryza sativa (ORYSA), Avena fatua (AVEFA), Alopecurus myosuroides (ALOMY), Echinochloa crus-galli (ECHCG), Lolium perenne (LOLPE), Zea Mays (ZEAMX), Abutilon theophrasti (ABUTH), Amaranthus retroflexus (AMARE) and Setaria faberi (SETFA). After 8 days cultivation (post-emergence) under controlled conditions in a glasshouse (at 24/16° C., day/night; 14 hours light; 65% humidity), the plants were sprayed with an aqueous spray solution derived from the formulation of the technical active ingredient in acetone/water (50:50) solution containing 0.5% Tween 20 (polyoxyethelyene sorbitan monolaurate, CAS RN 9005-64-5). The test plants were then grown in a glasshouse under controlled conditions (at 24/16° C., day/night; 14 hours light; 65% humidity) and watered twice daily. After 13 days, the test was evaluated (5=total damage to plant; 0=no damage to plant).

Avena fatua (AVEFA) [8] = assay: Post-emergence herbicidal activity; details: post-emergence application, 1000 g/Ha, evaluated after 13 days, scale 0-5
Experimental: as §3, §4

[9] = test system: Echinochloa crus-galli (ECHCG); assay: Post-emergence herbicidal activity; details: post-emergence application, 1000 g/Ha, evaluated after 13 days, scale 0-5; Table 7
Experimental: as §3, §4

Lolium perenne (LOLPE) [10] = assay: Post-emergence herbicidal activity; details: post-emergence application, 1000 g/Ha, evaluated after 13 days, scale 0-5; Table 7
Experimental: as §3, §4

Oryza sativa (ORYSA) [11] = assay: Post-emergence herbicidal activity; details: post-emergence application, 1000 g/Ha, evaluated after 13 days, scale 0-5
Experimental: as §3, §4

[12] = test system: Triticum aestivium (TRZAW); assay: Post-emergence herbicidal activity; details: post-emergence application, 1000 g/Ha, evaluated after 13 days, scale 0-5
Experimental: as §3, §4

Cc1nc(-c2cccnc2)sc1N(C)C(=S)SC(C)(C)C [Compound A23, tert-butyl N-methyl-N-[4-methyl-2-(3-pyridyl)thiazol-5-yl]carbamodithioate]
Control of weed species, ALOMY (damage score) [1]: 0
Control of weed species, AVEFA (damage score) (Avena fatua (AVEFA) [2]): 0
Control of weed species, ECHCG (damage score) [3]: 0
Control of weed species, LOLPE (damage score) (Lolium perenne (LOLPE) [4]): 0
Control of weed species, ORYSA (damage score) (Oryza sativa (ORYSA) [5]): 0
Control of weed species, TRZAW (damage score) [6]: 0
Control of weed species, ALOMY (damage score) [7]: 0
Control of weed species, AVEFA (damage score) (Avena fatua (AVEFA) [8]): 1
Control of weed species, ECHCG (damage score) [9]: 1
Control of weed species, LOLPE (damage score) (Lolium perenne (LOLPE) [10]): 0
Control of weed species, ORYSA (damage score) (Oryza sativa (ORYSA) [11]): 0
Control of weed species, TRZAW (damage score) [12]: 0

CN(C(=O)OC(C)(C)C)c1sc(-c2cncc(F)c2)nc1C(F)(F)F [Compound A24]
Control of weed species, ALOMY (damage score) [1]: 2
Control of weed species, AVEFA (damage score) (Avena fatua (AVEFA) [2]): 4
Control of weed species, ECHCG (damage score) [3]: 4
Control of weed species, LOLPE (damage score) (Lolium perenne (LOLPE) [4]): 3
Control of weed species, ORYSA (damage score) (Oryza sativa (ORYSA) [5]): 0
Control of weed species, TRZAW (damage score) [6]: 1
Control of weed species, ALOMY (damage score) [7]: 0
Control of weed species, AVEFA (damage score) (Avena fatua (AVEFA) [8]): 4
Control of weed species, ECHCG (damage score) [9]: 5
Control of weed species, LOLPE (damage score) (Lolium perenne (LOLPE) [10]): 4
Control of weed species, ORYSA (damage score) (Oryza sativa (ORYSA) [11]): 2
Control of weed species, TRZAW (damage score) [12]: 1

CN(C(=O)OC(C)(C)C)c1sc(-c2cccnc2)nc1C(F)(F)F [Compound A25]
Control of weed species, ALOMY (damage score) [1]: 1
Control of weed species, AVEFA (damage score) (Avena fatua (AVEFA) [2]): 4
Control of weed species, ECHCG (damage score) [3]: 4
Control of weed species, LOLPE (damage score) (Lolium perenne (LOLPE) [4]): 3
Control of weed species, ORYSA (damage score) (Oryza sativa (ORYSA) [5]): 1
Control of weed species, TRZAW (damage score) [6]: 0
Control of weed species, ALOMY (damage score) [7]: 1
Control of weed species, AVEFA (damage score) (Avena fatua (AVEFA) [8]): 4
Control of weed species, ECHCG (damage score) [9]: 5
Control of weed species, LOLPE (damage score) (Lolium perenne (LOLPE) [10]): 4
Control of weed species, ORYSA (damage score) (Oryza sativa (ORYSA) [11]): 1
Control of weed species, TRZAW (damage score) [12]: 2

CN(C(=O)OC(C)(C)C)c1sc(-c2cncnc2)nc1C(F)(F)F [Compound A26]
Control of weed species, ALOMY (damage score) [1]: 2
Control of weed species, AVEFA (damage score) (Avena fatua (AVEFA) [2]): 4
Control of weed species, ECHCG (damage score) [3]: 4
Control of weed species, LOLPE (damage score) (Lolium perenne (LOLPE) [4]): 3
Control of weed species, ORYSA (damage score) (Oryza sativa (ORYSA) [5]): 1
Control of weed species, TRZAW (damage score) [6]: 0
Control of weed species, ALOMY (damage score) [7]: 0
Control of weed species, AVEFA (damage score) (Avena fatua (AVEFA) [8]): 5
Control of weed species, ECHCG (damage score) [9]: 5
Control of weed species, LOLPE (damage score) (Lolium perenne (LOLPE) [10]): 4
Control of weed species, ORYSA (damage score) (Oryza sativa (ORYSA) [11]): 2
Control of weed species, TRZAW (damage score) [12]: 1

CN(C(=O)OC(C)(C)C)c1sc(-c2cncc(Cl)c2)nc1C(F)(F)F [Compound A27]
Control of weed species, ALOMY (damage score) [1]: 0
Control of weed species, AVEFA (damage score) (Avena fatua (AVEFA) [2]): 2
Control of weed species, ECHCG (damage score) [3]: 2
Control of weed species, LOLPE (damage score) (Lolium perenne (LOLPE) [4]): 2
Control of weed species, ORYSA (damage score) (Oryza sativa (ORYSA) [5]): 0
Control of weed species, TRZAW (damage score) [6]: 0
Control of weed species, ALOMY (damage score) [7]: 1
Control of weed species, AVEFA (damage score) (Avena fatua (AVEFA) [8]): 4
Control of weed species, ECHCG (damage score) [9]: 5
Control of weed species, LOLPE (damage score) (Lolium perenne (LOLPE) [10]): 3
Control of weed species, ORYSA (damage score) (Oryza sativa (ORYSA) [11]): 1
Control of weed species, TRZAW (damage score) [12]: 2

COc1cncc(-c2nc(C(F)(F)F)c(N(C)C(=O)OC(C)(C)C)s2)c1 [Compound A28, tert-butyl N-[2-(5-methoxy-3-pyridyl)-4-(trifluoromethyl)thiazol-5-yl]-N-methyl-carbamate]
Control of weed species, ALOMY (damage score) [1]: 0
Control of weed species, AVEFA (damage score) (Avena fatua (AVEFA) [2]): 1
Control of weed species, ECHCG (damage score) [3]: 3
Control of weed species, LOLPE (damage score) (Lolium perenne (LOLPE) [4]): 2
Control of weed species, ORYSA (damage score) (Oryza sativa (ORYSA) [5]): 0
Control of weed species, TRZAW (damage score) [6]: 0
Control of weed species, ALOMY (damage score) [7]: 1
Control of weed species, AVEFA (damage score) (Avena fatua (AVEFA) [8]): 2
Control of weed species, ECHCG (damage score) [9]: 4
Control of weed species, LOLPE (damage score) (Lolium perenne (LOLPE) [10]): 3
Control of weed species, ORYSA (damage score) (Oryza sativa (ORYSA) [11]): 1
Control of weed species, TRZAW (damage score) [12]: 1
